Experiments:
Assay in all cases: relative viability (nuclei count vs DMSO), 5 days (fraction); higher = more cells survive
[1] = compound: CN(C)C/C=C/C(=O)Nc1cc2c(Nc3ccc(F)c(Cl)c3)ncnc2cc1O[C@H]1CCOC1 [Afatinib] + CCNC(=O)c1noc(-c2cc(C(C)C)c(O)cc2O)c1-c1ccc(CN2CCOCC2)cc1 [Luminespib] (partner 0.01 µM)
Procedure, shortened: (§1)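 Relative viability was taken as the ratio of nuclei in treated wells to nuclei in vehicle wells. Lung cancer cell lines in 1536-well plates received compounds by pin tool one day after seeding, either one drug alone or a fixed anchor-drug dose plus five library-drug doses (not always all listed) in √10 steps. Nuclei were counted on 4× images after 5 days of treatment, and values are medians of duplicate plates.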

[2] = compound: CN(C)C/C=C/C(=O)Nc1cc2c(Nc3ccc(F)c(Cl)c3)ncnc2cc1O[C@H]1CCOC1 [Afatinib] + CS(=O)(=O)CCNCc1ccc(-c2ccc3ncnc(Nc4ccc(OCc5cccc(F)c5)c(Cl)c4)c3c2)o1 [Lapatinib] (partner 2 µM)
Procedure, shortened: as §1

[3] = compound: CN(C)C/C=C/C(=O)Nc1cc2c(Nc3ccc(F)c(Cl)c3)ncnc2cc1O[C@H]1CCOC1 [Afatinib] + Nc1ncn([C@H]2C[C@H](O)[C@@H](CO)O2)c(=O)n1 [Decitabine] (partner 2 µM)
Procedure, shortened: as §1

[4] = compound: CN(C)C/C=C/C(=O)Nc1cc2c(Nc3ccc(F)c(Cl)c3)ncnc2cc1O[C@H]1CCOC1 [Afatinib] + O=C(c1cc(Cc2n[nH]c(=O)c3ccccc23)ccc1F)N1CCN(C(=O)C2CC2)CC1 [Olaparib] (partner 8 µM)
Procedure, shortened: as §1

Cell Line: H3255
- relative viability ([1]; first compound 0.005 µM): 0.461
- relative viability ([1]; first compound 0.01581 µM): 0.234
- relative viability ([1]; first compound 0.05 µM): 0.303
- relative viability ([1]; first compound 0.1581 µM): 0.336
- relative viability ([1]; first compound 0.5 µM): 0.269
- relative viability ([2]; first compound 0.005 µM): 0.244
- relative viability ([2]; first compound 0.01581 µM): 0.227
- relative viability ([2]; first compound 0.05 µM): 0.242
- relative viability ([2]; first compound 0.1581 µM): 0.215
- relative viability ([2]; first compound 0.5 µM): 0.215
- relative viability ([3]; first compound 0.005 µM): 0.256
- relative viability ([3]; first compound 0.01581 µM): 0.167
- relative viability ([3]; first compound 0.05 µM): 0.179
- relative viability ([3]; first compound 0.1581 µM): 0.189
- relative viability ([3]; first compound 0.5 µM): 0.172
- relative viability ([4]; first compound 0.005 µM): 0.332
- relative viability ([4]; first compound 0.01581 µM): 0.273
- relative viability ([4]; first compound 0.05 µM): 0.277
- relative viability ([4]; first compound 0.1581 µM): 0.277
- relative viability ([4]; first compound 0.5 µM): 0.236

Cell Line: LXF-289
- relative viability ([1]; first compound 0.005 µM): 0.748
- relative viability ([1]; first compound 0.01581 µM): 0.604
- relative viability ([1]; first compound 0.05 µM): 0.719
- relative viability ([1]; first compound 0.1581 µM): 0.656
- relative viability ([1]; first compound 0.5 µM): 0.564
- relative viability ([2]; first compound 0.005 µM): 0.937
- relative viability ([2]; first compound 0.01581 µM): 0.91
- relative viability ([2]; first compound 0.05 µM): 0.95
- relative viability ([2]; first compound 0.1581 µM): 0.903
- relative viability ([2]; first compound 0.5 µM): 0.917
- relative viability ([3]; first compound 0.005 µM): 0.371
- relative viability ([3]; first compound 0.01581 µM): 0.356
- relative viability ([3]; first compound 0.05 µM): 0.366
- relative viability ([3]; first compound 0.1581 µM): 0.351
- relative viability ([3]; first compound 0.5 µM): 0.365
- relative viability ([4]; first compound 0.005 µM): 1.12
- relative viability ([4]; first compound 0.01581 µM): 1.06
- relative viability ([4]; first compound 0.05 µM): 1.09
- relative viability ([4]; first compound 0.1581 µM): 1.04
- relative viability ([4]; first compound 0.5 µM): 1.03

Cell Line: UMC-11
- relative viability ([1]; first compound 0.005 µM): 1.03
- relative viability ([1]; first compound 0.01581 µM): 1.08
- relative viability ([1]; first compound 0.05 µM): 1.06
- relative viability ([1]; first compound 0.1581 µM): 1.01
- relative viability ([1]; first compound 0.5 µM): 0.944
- relative viability ([2]; first compound 0.005 µM): 1.07
- relative viability ([2]; first compound 0.01581 µM): 0.919
- relative viability ([2]; first compound 0.05 µM): 0.846
- relative viability ([2]; first compound 0.1581 µM): 0.802
- relative viability ([2]; first compound 0.5 µM): 1
- relative viability ([3]; first compound 0.005 µM): 0.664
- relative viability ([3]; first compound 0.01581 µM): 0.602
- relative viability ([3]; first compound 0.05 µM): 0.584
- relative viability ([3]; first compound 0.1581 µM): 0.554
- relative viability ([3]; first compound 0.5 µM): 0.63
- relative viability ([4]; first compound 0.005 µM): 0.386
- relative viability ([4]; first compound 0.01581 µM): 0.402
- relative viability ([4]; first compound 0.05 µM): 0.405
- relative viability ([4]; first compound 0.1581 µM): 0.368
- relative viability ([4]; first compound 0.5 µM): 0.394

Cell Line: LC-2-ad
- relative viability ([1]; first compound 0.005 µM): 1.01
- relative viability ([1]; first compound 0.01581 µM): 1.05
- relative viability ([1]; first compound 0.05 µM): 1.13
- relative viability ([1]; first compound 0.1581 µM): 1.08
- relative viability ([1]; first compound 0.5 µM): 1.05
- relative viability ([2]; first compound 0.005 µM): 1.07
- relative viability ([2]; first compound 0.01581 µM): 0.991
- relative viability ([2]; first compound 0.05 µM): 1.07
- relative viability ([2]; first compound 0.1581 µM): 0.961
- relative viability ([2]; first compound 0.5 µM): 0.925
- relative viability ([3]; first compound 0.005 µM): 0.769
- relative viability ([3]; first compound 0.01581 µM): 0.866
- relative viability ([3]; first compound 0.05 µM): 0.786
- relative viability ([3]; first compound 0.1581 µM): 0.694
- relative viability ([3]; first compound 0.5 µM): 0.767
- relative viability ([4]; first compound 0.005 µM): 0.752
- relative viability ([4]; first compound 0.01581 µM): 0.754
- relative viability ([4]; first compound 0.05 µM): 0.724
- relative viability ([4]; first compound 0.1581 µM): 0.707
- relative viability ([4]; first compound 0.5 µM): 0.701

Cell Line: SK-MES-1
- relative viability ([1]; first compound 0.005 µM): 0.476
- relative viability ([1]; first compound 0.01581 µM): 0.399
- relative viability ([1]; first compound 0.05 µM): 0.481
- relative viability ([1]; first compound 0.1581 µM): 0.277
- relative viability ([1]; first compound 0.5 µM): 0.49
- relative viability ([2]; first compound 0.005 µM): 0.423
- relative viability ([2]; first compound 0.01581 µM): 0.393
- relative viability ([2]; first compound 0.05 µM): 0.459
- relative viability ([2]; first compound 0.1581 µM): 0.444
- relative viability ([2]; first compound 0.5 µM): 0.467
- relative viability ([3]; first compound 0.005 µM): 0.27
- relative viability ([3]; first compound 0.01581 µM): 0.322
- relative viability ([3]; first compound 0.05 µM): 0.309
- relative viability ([3]; first compound 0.1581 µM): 0.312
- relative viability ([3]; first compound 0.5 µM): 0.316
- relative viability ([4]; first compound 0.005 µM): 0.682
- relative viability ([4]; first compound 0.01581 µM): 0.489
- relative viability ([4]; first compound 0.05 µM): 0.325
- relative viability ([4]; first compound 0.1581 µM): 0.334
- relative viability ([4]; first compound 0.5 µM): 0.404

Cell Line: A-427
- relative viability ([1]; first compound 0.005 µM): 1.1
- relative viability ([1]; first compound 0.01581 µM): 0.926
- relative viability ([1]; first compound 0.05 µM): 1.04
- relative viability ([1]; first compound 0.1581 µM): 0.968
- relative viability ([1]; first compound 0.5 µM): 0.915
- relative viability ([2]; first compound 0.005 µM): 1.09
- relative viability ([2]; first compound 0.01581 µM): 1.09
- relative viability ([2]; first compound 0.05 µM): 1.01
- relative viability ([2]; first compound 0.1581 µM): 1.03
- relative viability ([2]; first compound 0.5 µM): 1.04
- relative viability ([3]; first compound 0.005 µM): 0.556
- relative viability ([3]; first compound 0.01581 µM): 0.594
- relative viability ([3]; first compound 0.05 µM): 0.551
- relative viability ([3]; first compound 0.1581 µM): 0.502
- relative viability ([3]; first compound 0.5 µM): 0.511
- relative viability ([4]; first compound 0.005 µM): 0.79
- relative viability ([4]; first compound 0.01581 µM): 0.759
- relative viability ([4]; first compound 0.05 µM): 0.779
- relative viability ([4]; first compound 0.1581 µM): 0.776
- relative viability ([4]; first compound 0.5 µM): 0.789

Cell Line: NCI-H322M
- relative viability ([1]; first compound 0.005 µM): 0.705
- relative viability ([1]; first compound 0.01581 µM): 0.566
- relative viability ([1]; first compound 0.05 µM): 0.443
- relative viability ([1]; first compound 0.1581 µM): 0.496
- relative viability ([1]; first compound 0.5 µM): 0.405
- relative viability ([2]; first compound 0.005 µM): 0.554
- relative viability ([2]; first compound 0.01581 µM): 0.547
- relative viability ([2]; first compound 0.05 µM): 0.499
- relative viability ([2]; first compound 0.1581 µM): 0.57
- relative viability ([2]; first compound 0.5 µM): 0.465
- relative viability ([3]; first compound 0.005 µM): 0.637
- relative viability ([3]; first compound 0.01581 µM): 0.509
- relative viability ([3]; first compound 0.05 µM): 0.55
- relative viability ([3]; first compound 0.1581 µM): 0.502
- relative viability ([3]; first compound 0.5 µM): 0.479
- relative viability ([4]; first compound 0.005 µM): 0.743
- relative viability ([4]; first compound 0.01581 µM): 0.573
- relative viability ([4]; first compound 0.05 µM): 0.559
- relative viability ([4]; first compound 0.1581 µM): 0.559
- relative viability ([4]; first compound 0.5 µM): 0.531

Cell Line: NCI-H1975
- relative viability ([1]; first compound 0.005 µM): 0.199
- relative viability ([1]; first compound 0.01581 µM): 0.18
- relative viability ([1]; first compound 0.05 µM): 0.199
- relative viability ([1]; first compound 0.1581 µM): 0.122
- relative viability ([1]; first compound 0.5 µM): 0.169
- relative viability ([2]; first compound 0.005 µM): 0.895
- relative viability ([2]; first compound 0.01581 µM): 0.685
- relative viability ([2]; first compound 0.05 µM): 0.529
- relative viability ([2]; first compound 0.1581 µM): 0.283
- relative viability ([2]; first compound 0.5 µM): 0.239
- relative viability ([3]; first compound 0.005 µM): 0.395
- relative viability ([3]; first compound 0.01581 µM): 0.283
- relative viability ([3]; first compound 0.05 µM): 0.391
- relative viability ([3]; first compound 0.1581 µM): 0.264
- relative viability ([3]; first compound 0.5 µM): 0.373
- relative viability ([4]; first compound 0.005 µM): 0.917
- relative viability ([4]; first compound 0.01581 µM): 0.771
- relative viability ([4]; first compound 0.05 µM): 0.778
- relative viability ([4]; first compound 0.1581 µM): 0.59
- relative viability ([4]; first compound 0.5 µM): 0.321
